The text below walks through data of patent US8956641B2, “Alpha adrenergic receptor agonists for treatment of inflammatory diseases” (Warsaw Orthopedic, Inc., priority 2008, dated 2015).

The assay concerns Rat Chronic Constriction Injury Model (neuropathic pain). The note with it: clonidine subcutaneously 0.02 mg/kg/day; FIG. 4.

Text: The inventors evaluated the efficacy of a five Month Clonidine/Polymer Drug Depot in the Rat Chronic Constriction Injury Model. The animal model was the Bennett Model (Wistar rat). The purpose: To determine whether a five month polymer clonidine-eluting depot can improve pain associated behavioral responses in a rat model of neuropathic pain.
Experimental Design: Four loose chromic gut ligatures, 1 mm apart, were tied around the common sciatic nerve at mid-thigh. Each animal received treatment of test or control article-according to the dosing described in Table 5.
The inventors have conducted the present study for a period of 64 days and have employed the following two tests: (1) the Hargreaves test; and (2) the von Frey test. The Hargreaves Tests of Thermal Hyperalgesia were conducted on days 7, 14, 21, 28, 35, 42, 49, 56 and 63. The von Frey monofilament test of mechanical allodynia (performed the day following Thermal testing) were conducted on days-8, 15, 22, 29, 36, 43, 50, 57 and 64.

As for `Clc1cccc(Cl)c1N=C1NCCN1` [clonidine, 2,6-dichloro-N2-imidazolidinyldenebenzenamine], the “pain behavioral response (percentage of baseline) for mechanical allodynia compared to unloaded polymer depots” value is listed as “reduced the behavioral response”.
